We go through six compounds from US9056832B2, “Pyridine compounds and the users thereof” (Purdue Pharma L.P., priority 2010, dated 2015).

Read-outs that look alike come from different tables or passages of the source.

One may read the IC50 as the concentration that gives 50% inhibition.

The target in assay [1] is human Nav1.7 (Homo sapiens (Human), UniProt Q15858). Put plainly: FLIPR or FLIPR TETRA sodium dye assay with KCl and test article pre-incubation. The assay is classed as cell-based. As to conditions: read-out: Nav1.7 IC50 (μM) ± SEM.
human Nav1.7, sequence (Q15858 other isoform, or with tags, fused parts or gaps): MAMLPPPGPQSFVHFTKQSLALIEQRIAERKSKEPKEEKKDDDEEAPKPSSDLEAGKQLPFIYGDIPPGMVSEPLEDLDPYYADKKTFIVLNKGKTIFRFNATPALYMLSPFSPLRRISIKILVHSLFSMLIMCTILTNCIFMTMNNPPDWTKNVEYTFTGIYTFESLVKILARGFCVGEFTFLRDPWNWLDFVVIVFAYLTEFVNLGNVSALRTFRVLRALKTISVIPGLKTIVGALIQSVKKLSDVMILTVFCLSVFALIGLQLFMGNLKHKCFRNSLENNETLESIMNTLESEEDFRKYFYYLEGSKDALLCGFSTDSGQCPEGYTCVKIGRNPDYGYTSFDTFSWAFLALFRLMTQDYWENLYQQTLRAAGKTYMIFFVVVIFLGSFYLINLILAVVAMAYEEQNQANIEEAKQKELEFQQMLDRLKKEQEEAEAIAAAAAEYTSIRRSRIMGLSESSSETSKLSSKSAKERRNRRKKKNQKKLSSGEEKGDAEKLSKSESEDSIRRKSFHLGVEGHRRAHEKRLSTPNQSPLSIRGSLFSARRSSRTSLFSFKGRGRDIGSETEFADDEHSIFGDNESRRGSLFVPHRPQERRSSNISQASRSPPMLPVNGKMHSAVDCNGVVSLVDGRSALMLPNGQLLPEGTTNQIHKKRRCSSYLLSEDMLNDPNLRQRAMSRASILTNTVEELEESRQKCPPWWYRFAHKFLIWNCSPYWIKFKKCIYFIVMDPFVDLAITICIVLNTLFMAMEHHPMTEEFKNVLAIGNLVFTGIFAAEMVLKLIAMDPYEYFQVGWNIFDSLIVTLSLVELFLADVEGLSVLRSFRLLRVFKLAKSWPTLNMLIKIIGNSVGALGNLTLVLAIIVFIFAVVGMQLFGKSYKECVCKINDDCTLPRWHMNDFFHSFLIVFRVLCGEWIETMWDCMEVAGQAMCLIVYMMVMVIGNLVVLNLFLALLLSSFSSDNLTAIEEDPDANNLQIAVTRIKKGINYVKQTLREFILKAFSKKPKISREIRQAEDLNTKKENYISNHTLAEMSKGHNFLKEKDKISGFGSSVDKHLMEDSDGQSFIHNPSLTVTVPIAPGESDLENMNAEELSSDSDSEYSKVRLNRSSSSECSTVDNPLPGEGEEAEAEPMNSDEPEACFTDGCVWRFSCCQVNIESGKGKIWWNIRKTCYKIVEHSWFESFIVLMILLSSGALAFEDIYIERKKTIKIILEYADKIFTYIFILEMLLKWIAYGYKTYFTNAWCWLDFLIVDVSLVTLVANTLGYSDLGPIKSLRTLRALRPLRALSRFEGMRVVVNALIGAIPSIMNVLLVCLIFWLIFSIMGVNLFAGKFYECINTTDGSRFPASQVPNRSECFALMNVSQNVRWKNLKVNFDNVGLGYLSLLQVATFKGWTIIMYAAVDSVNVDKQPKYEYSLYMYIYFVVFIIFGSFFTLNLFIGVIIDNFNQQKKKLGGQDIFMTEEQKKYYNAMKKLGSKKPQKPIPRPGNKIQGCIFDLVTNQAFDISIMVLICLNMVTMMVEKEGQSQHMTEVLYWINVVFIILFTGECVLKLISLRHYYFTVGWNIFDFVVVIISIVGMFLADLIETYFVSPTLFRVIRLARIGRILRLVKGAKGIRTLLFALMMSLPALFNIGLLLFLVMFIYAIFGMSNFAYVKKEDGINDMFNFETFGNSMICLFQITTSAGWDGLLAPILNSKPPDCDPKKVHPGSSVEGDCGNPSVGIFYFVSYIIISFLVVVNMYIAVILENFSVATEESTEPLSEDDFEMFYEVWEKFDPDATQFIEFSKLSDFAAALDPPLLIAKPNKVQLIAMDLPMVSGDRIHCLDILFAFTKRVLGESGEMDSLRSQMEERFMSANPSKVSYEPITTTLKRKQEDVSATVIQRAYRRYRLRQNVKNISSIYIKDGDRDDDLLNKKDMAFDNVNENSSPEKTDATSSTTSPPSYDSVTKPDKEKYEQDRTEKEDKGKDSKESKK
In assay [2] the test system is neuropathic hyperalgesia in rats. In words: Seltzer model (partial sciatic nerve ligation) of neuropathic pain, paw withdrawal threshold. The format is in vivo. As to conditions: 30 mg/kg p.o., rat; for Time post-dose (h) with statistically significant increase in paw withdrawal threshold: Seltzer model, assessed 1, 3 and 5 h after administration. As for the experimental part:
Test Animals: Each experiment uses rats weighing between 200-260 g at the start of the experiment. The rats are group-housed and have free access to food and water at all times, except prior to oral administration of a test compound when food is removed for 16 hours before dosing. A control group acts as a comparison to rats treated with a compound of Formulae I-XXXIII. The control group is administered the carrier as used for the test compound. The volume of carrier administered to the control group is the same as the volume of carrier and test compound administered to the test group.
In the Seltzer model, the partial sciatic nerve ligation model of neuropathic pain was used to produce neuropathic hyperalgesia in rats (Seltzer et al., Pain 43:205-218 (1990)). Partial ligation of the left sciatic nerve was performed under inhalation anesthesia, e.g., isoflurane/O2. Following induction of anesthesia, the left thigh of the rat was shaved and the sciatic nerve exposed at high thigh level through a small incision and was carefully cleared of surrounding connective tissues at a site near the trocanther just distal to the point at which the posterior biceps semitendinosus nerve branches off of the common sciatic nerve. A 7-0 silk suture was inserted into the nerve, e.g., with a ⅜ curved, reversed-cutting mini-needle, and tightly ligated so that the dorsal ⅓ to ½ of the nerve thickness was held within the ligature. The wound was closed, e.g., with a single muscle suture (4-0 nylon (Vicryl)) and vetbond tissue glue. Following surgery, the wound area was dusted with antibiotic powder. Sham-treated rats undergo an identical surgical procedure except that the sciatic nerve is not manipulated. Following surgery, animals were weighed and placed on a warm pad until they recovered from anesthesia. Animals were then returned to their home cages until behavioral testing began. The animals were assessed for response to noxious mechanical stimuli by determining PWT, as described below, prior to surgery (baseline), then immediately prior to and 1, 3, and 5 hours after drug administration for rear paw of the animal. Percentage reversal of neuropathic hyperalgesia is defined as: […]
The following compounds were tested and produced a statistically significant increase in paw withdrawal threshold when administered at 30 mg/kg p.o. in the Seltzer model of neuropathic pain at the time points indicated:
Mechanical Hyperalgesia: Sensitivity to noxious mechanical stimuli can be measured in animals using the paw pressure test to assess mechanical hyperalgesia. In rats, hind paw withdrawal thresholds (“PWT”), measured in grams, in response to a noxious mechanical stimulus are determined using an analgesymeter (Model 7200, commercially available from Ugo Basile of Italy), as described in Stein (Biochemistry & Behavior 31: 451-455 (1988)). The rat's paw is placed on a small platform, and weight is applied in a graded manner up to a maximum of 250 grams. The endpoint is taken as the weight at which the paw is completely withdrawn. PWT is determined once for each rat at each time point. PWT can be measured only in the injured paw, or in both the injured and non-injured paw. In one non-limiting embodiment, mechanical hyperalgesia associated with nerve injury induced pain (neuropathic pain) can be assessed in rats. Rats are tested prior to surgery to determine a baseline, or normal, PWT. Rats are tested again 2 to 3 weeks post-surgery, prior to, and at different times after (e.g. 1, 3, 5 and 24 hr) drug administration.

Setting [3] is: recombinant human Nav1.7 in HEK293 cells, CoroNa Green sodium dye, veratridine + scorpion venom.

As to `OC[C@H](O)c1cccc(-c2ccc(Oc3ccc(C(F)(F)F)cc3)cc2)n1` [compound 5, (R)-1-(6-(4-(4-(trifluoromethyl)phenoxy)phenyl)pyridin-2-yl)ethane-1,2-diol], the IC50 in assay [1] is 0.16 ± 0.07 µM. In addition, the “Time post-dose (h) with statistically significant increase in paw withdrawal threshold” value in assay [2] is listed as 1 h.
For `N#Cc1cc(Oc2ccc(-c3cccc([C@H](O)CO)n3)cc2)ccc1C(F)(F)F` [compound 18, (S)-5-(4-(6-(1,2-dihydroxyethyl)pyridin-2-yl)phenoxy)-2-(trifluoromethyl) benzonitrile], in that order: 2.8 ± 0.12 µM and 1 h.
For `NC(=O)c1cc([C@H](O)CO)cc(-c2ccc(Oc3ccc(C(F)(F)F)cc3)cc2)n1` [compound 30, (S)-4-(1,2-dihydroxyethyl)-6-(4-(4-(trifluoromethyl)phenoxy)phenyl) picolinamide], the IC50 in assay [1] (setting [3]) was determined as 0.24 ± 0.07 µM. In addition, the “Time post-dose (h) with statistically significant increase in paw withdrawal threshold” value in assay [2] was 1 h.
On to `NC(=O)c1cc([C@@H](O)CO)cc(-c2ccc(Oc3ccc(F)cc3)cc2)n1` [compound 40, (R)-4-(1,2-dihydroxyethyl)-6-(4-(4-fluorophenoxy)phenyl)picolinamide], for which the “Time post-dose (h) with statistically significant increase in paw withdrawal threshold” value in assay [2] came to 1 h.
Turning to `N#Cc1cc(C(F)(F)F)ccc1Oc1ccc(-c2cccc(CNCCN3CCNC3=O)n2)cc1` [compound 63, 2-(4-(6-(((2-(2-oxoimidazolidin-1-yl)ethyl)amino)methyl)pyridin-2-yl)phenoxy)-5-(trifluoromethyl) benzonitrile], the IC50 in assay [1] (setting [3]) was 0.09 ± 0.03 µM. The “increase in paw withdrawal threshold in the Seltzer model” value in assay [2] (vehicle 10% Tween 80 in water) is on record as “did not produce a statistically significant increase”.
Take `O=C1NCCN1CCNCc1cccc(-c2ccc(Oc3ccc(C(F)(F)F)cn3)cc2)n1` [compound 68, 1-(2-(((6-(4-((5-(trifluoromethyl)pyridin-2-yl)oxy)phenyl)pyridin-2-yl)methyl)amino)ethyl) imidazolidin-2-one]: the concentration for half-maximal inhibition (IC50) in assay [1] (setting [3]) was 0.18 ± 0.09 µM. Besides, in assay [2], the “Time post-dose (h) with statistically significant increase in paw withdrawal threshold” value stood at 1 h.
